“Also recorded” adds a separate entry of the source.
system: PBMCs isolated from naturally M. bovis-infected cattle; assay type: cell-based, cattle (Bos taurus taurus)

| Sequence | recognition of individual peptide (IFN-γ ELISPOT response, Z-scores) |
| --- | --- |
| MAEMKTDAATLAQEAGNFERISGDLKTQIDQVESTAGSLQ [compound 5] | poorly recognized |
| NVTSIHSLLDEGKQSLTKLAAAWGGSGSEAYQGVQQKWDA [peptide 2] | poorly and infrequently recognized |
| QEAGNFERISGDLKTQ [peptide 25] | strongly recognized; also recorded: recognized promiscuously |
| AITHGPYCSQFNDTLNVYLT (artificial protein fragment) [compound 39, short Rv3615c peptide] | poor recognition could be compensated |
| GQWRGAAGTAAQAAVVRFQEAANKQKQELDEISTNIRQAG [compound 7] | far stronger response |
| AITHGPYCSQFNDTLNVYLTAHNALGSSLHTAGVDLAKSL (artificial protein fragment) [compound 10, long Rv3615c fragment] | poorly recognized |
| KQSLTKLAAAWGGSGS (artificial protein fragment) [peptide 17, short ESAT-6 peptide] | strong epitope |
| SHHDNAAVDASSGVEAAAGL (artificial protein fragment) [compound 36, short Rv3615c peptide] | poor recognition could be compensated |
| MTENLTVQPERLGVLASHHDNAAVDASSGVEAAAGLGESV (artificial protein fragment) [compound 9, long Rv3615c fragment] | poorly recognized |
| AANKQKQELDEISTNIRQAGVQYSRADEEQQQALSSQMGF [compound 8] | far stronger response |
